Experiments:
[1] = tested on: HAP1 MTAP-deleted cell line; test: Viability assay, MTAP-deleted cell line; type: cell-based; conditions: Homo sapiens, HAP1, viability, HAP1 MTAP-deleted cell line; read-out: HAP1 MTAP deleted viability
From the text: Table 1 additionally indicates IC50 values in a viability assay for the MTAP-deleted cell line (column 10), indicating the effect of treatment with compound on cell survival.

[2] = target: T1, PRMT5 (Homo sapiens, UniProt O14744); test: PRMT5 biochemical IC50 assay with SAM as cofactor; conditions: PRMT5, SAM as cofactor; read-out: SAM IC50
T1 construct: purchased Viva (custom protein)

[3] = target: T1, PRMT5; test: PRMT5 biochemical IC50 assay with MTA as cofactor; conditions: PRMT5, MTA as cofactor; read-out: MTA IC50
[4] = tested on: HAP1 MTAP-deleted cell line; test: SDMA in-cell western assay, HAP1 MTAP-deleted; type: cell-based; conditions: for IC50: Homo sapiens, HAP1, SDMA in-cell western, HAP1 MTAP-deleted, read-out: HAP 1 MTAP deleted IC50; for MTAP intact/deleted ratio: IC50 ratio HAP1 MTAP-intact / HAP1 MTAP-deleted, SDMA in-cell western
Procedure, shortened: (§1)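 Isogenic HAP1 pair: the MTAP-intact line expresses endogenous MTAP, and the deleted line is MTAP-null. Symmetric dimethylarginine was detected by in-cell western and IC50 values derived for each line.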

[5] = tested on: HAP1 MTAP-intact cell line; test: SDMA in-cell western assay, HAP1 MTAP-intact; type: cell-based; conditions: Homo sapiens, HAP1, SDMA in-cell western, HAP1 MTAP-intact; read-out: MTAP HAP1 intact IC50
Procedure, shortened: as §1

[6] = target: T1, PRMT5; test: PRMT5 biochemical IC50 assay with no cofactor; conditions: PRMT5, no cofactor; read-out: No Cofactor/ rel IC50
From the text: Table 1 indicates IC50 values (μM) against PRMT5 for exemplary compounds in the presence of SAM as cofactor, with no cofactor, and with MTA as cofactor, respectively (columns 4-6). […] Ki values can be calculated from the IC50 values as described in the Examples section. As detailed in the Examples section, for the assay performed in the presence of SAM, IC50=Ki×1.5 (Ki=IC50/1.5).

T1 sequence (O14744 whole entry): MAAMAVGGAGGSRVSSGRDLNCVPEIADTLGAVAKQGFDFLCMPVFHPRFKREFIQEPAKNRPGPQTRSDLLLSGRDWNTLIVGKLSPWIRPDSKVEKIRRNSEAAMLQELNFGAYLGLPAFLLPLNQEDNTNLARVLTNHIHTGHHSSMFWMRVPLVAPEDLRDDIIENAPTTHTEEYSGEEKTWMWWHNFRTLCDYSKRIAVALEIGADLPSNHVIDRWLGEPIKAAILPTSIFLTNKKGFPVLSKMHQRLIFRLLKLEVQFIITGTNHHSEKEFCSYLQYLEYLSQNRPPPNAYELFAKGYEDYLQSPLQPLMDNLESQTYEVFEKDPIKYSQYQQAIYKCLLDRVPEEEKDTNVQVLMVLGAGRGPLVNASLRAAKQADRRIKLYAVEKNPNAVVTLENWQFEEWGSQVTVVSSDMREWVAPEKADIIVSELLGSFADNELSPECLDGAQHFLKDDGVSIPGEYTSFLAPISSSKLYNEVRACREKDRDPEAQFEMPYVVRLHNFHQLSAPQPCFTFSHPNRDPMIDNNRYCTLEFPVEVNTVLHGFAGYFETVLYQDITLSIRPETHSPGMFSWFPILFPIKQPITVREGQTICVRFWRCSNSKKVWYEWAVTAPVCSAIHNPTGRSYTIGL
T1 sequence (Q9BQA1 whole entry partner): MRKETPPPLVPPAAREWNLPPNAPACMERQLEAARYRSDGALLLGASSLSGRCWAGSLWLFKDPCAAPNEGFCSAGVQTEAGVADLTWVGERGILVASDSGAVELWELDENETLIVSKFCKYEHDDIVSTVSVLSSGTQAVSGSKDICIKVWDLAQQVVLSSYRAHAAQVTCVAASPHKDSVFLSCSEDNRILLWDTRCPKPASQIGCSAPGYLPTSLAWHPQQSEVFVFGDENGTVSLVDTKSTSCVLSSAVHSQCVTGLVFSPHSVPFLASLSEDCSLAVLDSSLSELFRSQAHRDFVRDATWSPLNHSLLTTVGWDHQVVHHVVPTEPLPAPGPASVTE

Row | Structure (SMILES) | IC50 [2] [nM] | IC50 [3] [nM] | IC50 [4] [nM] | IC50 [5] [nM] | IC50 [6] [nM] | IC50 [1] [nM] | MTAP intact/deleted ratio [4]
1 | Cc1ncc(NC(=O)C(=O)N2C[C@@H](C)CC[C@@H]2c2ccc3sc(C4CCN(C)CC4)nc3c2)cc1C(F)(F)F [Compound 1300, 2-((2R,5)-5-methyl-2-(2-(1-methylpiperidin-4-yl)benzo[d]thiazol-5-yl)piperidin-1-yl)-N-(6-methyl-5-(trifluoromethyl)pyridin-3-yl)-2-oxoacetamide] | 50 to 500 | < 50 | < 100 | 100 to 1000 | < 50 | < 1000 | A (an IC50 ratio greater than or equal to 10 fold)
2 | CCc1cc(NC(=O)C(=O)N2C[C@@H](C)CC[C@@H]2c2ccc3sc(CN(C)C(C)C)nc3c2)cnc1N [Compound 1303, N-(6-amino-5-ethylpyridin-3-yl)-2-((2R,5S)-2-(2-((isopropyl(methyl)amino)methyl)benzo[d]thiazol-5-yl)-5-methylpiperidin-1-yl)-2-oxoacetamide] | 50 to 500 | < 50 | < 100 | 100 to 1000 | < 50 | < 1000 | A (an IC50 ratio greater than or equal to 10 fold)
3 | CCc1cc(NC(=O)C(=O)N2C[C@@H](C)CC[C@@H]2c2ccc(NC3CCN(C)CC3)nc2)cnc1N [Compound 1306, N-(6-Amino-5-ethyl-3-pyridyl)-2-[(2R,5S)-5-methyl-2-[6-[(1-methyl-4-piperidyl)amino]-3-pyridyl]-1-piperidyl]-2-oxo-acetamide] | 50 to 500 | < 50 | < 100 | 100 to 1000 | < 50 | < 1000 | A (an IC50 ratio greater than or equal to 10 fold)
4 | COc1ncc(NC(=O)C(=O)N2C[C@@H](C)CC[C@@H]2c2ccc3sc(C[C@@H](C)N(C)C)nc3c2)cc1C(N)=O [Compound 1317, 5-(2-((2R,5S)-2-(2-((R)-2-(dimethylamino)propyl)benzo[d]thiazol-5-yl)-5-methylpiperidin-1-yl)-2-oxoacetamido)-2-methoxynicotinamide] | 50 to 500 | < 50 | < 100 | < 100 | < 50 | < 1000 | A (an IC50 ratio greater than or equal to 10 fold)
5 | CCc1cc(NC(=O)C(=O)N2C[C@@H](C)CC[C@@H]2c2ccc3sc(CN(C)C)nc3c2)cnc1N [Compound 1325, N-(6-amino-5-ethylpyridin-3-yl)-2-((2R,5S)-2-(2-((dimethylamino)methyl)benzo[d]thiazol-5-yl)-5-methylpiperidin-1-yl)-2-oxoacetamide] | 50 to 500 | < 50 | < 100 | < 100 | < 50 | < 1000 | A (an IC50 ratio greater than or equal to 10 fold)

Further lines, with some results ahead:

Row | IC50 [2] [nM] | IC50 [3] [nM] | IC50 [4] [nM] | IC50 [5] [nM] | IC50 [6] [nM] | Structure (SMILES) | IC50 [1] [nM] | MTAP intact/deleted ratio [4]
6 | 50 to 500 | < 50 | < 100 | < 100 | < 50 | CCc1cc(NC(=O)C(=O)N2C[C@@H](C)CC[C@@H]2c2ccc3sc(C45CCN(CC4)C5)nc3c2)cnc1N [Compound 1298, 2-((2R,5S)-2-(2-(1-azabicyclo[2.2.1]heptan-4-yl)benzo[d]thiazol-5-yl)-5-methylpiperidin-1-yl)-N-(6-amino-5-ethylpyridin-3-yl)-2-oxoacetamide] | < 1000 | B (an IC50 ratio greater than or equal to 3 fold but lower than 10 fold)
7 | < 50 | < 50 | < 100 | < 100 | < 50 | Cc1ncc(NC(=O)C(=O)N2C[C@@H](C)CC[C@@H]2c2ccc3sc(C4CCN(C)CC4)nc3c2)cc1C(F)F [Compound 1301] | < 1000 | A (an IC50 ratio greater than or equal to 10 fold)
8 | < 50 | < 50 | < 100 | 100 to 1000 | < 50 | CCc1cc(NC(=O)C(=O)N2C[C@@H](C)CC[C@@H]2c2ccc3sc(C4CCN(CC(F)F)CC4)nc3c2)cnc1N [Compound 1304, N-(6-amino-5-ethylpyridin-3-yl)-2-((2R,5S)-2-(2-(1-(2,2-difluoroethyl)piperidin-4-yl)benzo[d]thiazol-5-yl)-5-methylpiperidin-1-yl)-2-oxoacetamide] | < 1000 | A (an IC50 ratio greater than or equal to 10 fold)
9 | < 50 | < 50 | < 100 | < 100 | < 50 | Cc1ncc(NC(=O)C(=O)N2C[C@@H](C)CC[C@@H]2c2ccc3sc(C4CCN(C)CC4)nc3c2)cc1C1COC1 [Compound 1309, 2-((2R,5S)-5-methyl-2-(2-(1-methylpiperidin-4-yl)benzo[d]thiazol-5-yl)piperidin-1-yl)-N-(6-methyl-5-(oxetan-3-yl)pyridin-3-yl)-2-oxoacetamide] | < 1000 | A (an IC50 ratio greater than or equal to 10 fold)
10 | < 50 | < 50 | < 100 | 100 to 1000 | < 50 | Cc1cc(NC(=O)C(=O)N2C[C@@H](C)CC[C@@H]2c2ccc3sc(C4CC(C)(C)N(C)C(C)(C)C4)nc3c2)cnc1C [Compound 1315, N-(5,6-dimethylpyridin-3-yl)-2-((2R,5S)-5-methyl-2-(2-(1,2,2,6,6-pentamethylpiperidin-4-yl)benzo[d]thiazol-5-yl)piperidin-1-yl)-2-oxoacetamide] | < 1000 | A (an IC50 ratio greater than or equal to 10 fold)
11 | < 50 | < 50 | < 100 | < 100 | < 50 | CCc1cc(NC(=O)C(=O)N2C[C@@H](C)CC[C@@H]2c2ccc3nn(C4CCN(C)CC4)cc3c2)cnc1N [Compound 1321, N-(6-Amino-5-ethyl-3-pyridyl)-2-[(2R,5S)-5-methyl-2-[2-(1-methyl-4-piperidyl)indazol-5-yl]-1-piperidyl]-2-oxo-acetamide] | < 1000 | A (an IC50 ratio greater than or equal to 10 fold)
12 | < 50 | < 50 | < 100 | < 100 | < 50 | CCc1cc(NC(=O)C(=O)N2C[C@@H](C)CC[C@@H]2c2ccc3sc([C@@H](C)CN(C)C)nc3c2)cnc1N [Compound 1324, N-(6-amino-5-ethylpyridin-3-yl)-2-((2R,5S)-2-(2-(1-(dimethylamino)propan-2-yl)benzo[d]thiazol-5-yl)-5-methylpiperidin-1-yl)-2-oxoacetamide] | < 1000 | A (an IC50 ratio greater than or equal to 10 fold)
13 | < 50 | < 50 | < 100 | 100 to 1000 | < 50 | Cc1ncc(NC(=O)C(=O)N2C[C@@H](C)CC[C@@H]2c2ccc3sc(C4CCN(C)CC4)nc3c2)cc1C(N)=O [Compound 1326, 2-methyl-5-(2-((2R,5S)-5-methyl-2-(2-(1-methylpiperidin-4-yl)benzo[d]thiazol-5-yl)piperidin-1-yl)-2-oxoacetamido)nicotinamide] | < 1000 | A (an IC50 ratio greater than or equal to 10 fold)
